# How the values were obtained:
# [1] = Antioxidant activity assessed as DPPH radical scavenging activity after 20 mins by UV absorbance method relative to control; assay type: functional
# [2] = Antioxidant activity assessed as DPPH radical scavenging activity at 80 ug/ml relative to control; assay type: functional
# [3] = Antioxidant activity assessed as DPPH radical scavenging activity at 40 ug/ml relative to control; assay type: functional
# [4] = Antioxidant activity assessed as DPPH radical scavenging activity at 60 ug/ml relative to control; assay type: functional
# [5] = Antioxidant activity assessed as DPPH radical scavenging activity at 30 to 50 ug/ml relative to control; assay type: functional
# [6] = Antioxidant activity assessed as inhibition of lipid peroxidation relative to control; assay type: functional; details: dose or concentration not given here
# [7] = Antioxidant activity assessed as DPPH radical scavenging activity at 100 mM after 30 mins relative to control; assay type: functional
# [8] = Antioxidant activity assessed as nitric oxide radical scavenging activity at 100 mM after 150 mins in presence of sodium nitroprusside relative to control; assay type: functional
# [9] = Antioxidant activity assessed as ferric ion reducing activity after 20 mins in presence of potassium ferricyanide by FRAP assay relative to control; assay type: functional; parameters: scale not given: the % may be the effect or the level left
# [10] = Antioxidant activity assessed as DPPH radical scavenging activity at 10^-3 M relative to control; assay type: functional
# [11] = Antioxidant activity assessed as inhibition of DPPH radical at 100 ug/ml relative to control; assay type: functional
# [12] = Antioxidant activity assessed as DPPH radical scavenging activity at 10 ug/ml after 20 mins by UV absorbance method relative to control; assay type: functional
# [13] = Antioxidant activity assessed as radical scavenging activity at 30 to 50 ug/ml relative to control; assay type: functional
# [14] = Antioxidant activity assessed as DPPH radical scavenging activity at 20 ug/ml relative to control; assay type: functional
compound,measurement,setting,value
Cc1ccc(N2N=C(c3ccccc3)CC2Cn2cnc3c(N4CCCCC4)ncnc32)cc1 (configuration not stated),Activity,[1],13 to 24%
CCOC(=O)c1sc(Nc2ccccc2)c(-c2nc3c(cnn3-c3ccccc3)c(=O)[nH]2)c1N,Activity,,92%
CCOC(=O)C1=C(N)Oc2c(c(C)nn2C(=O)c2ccncc2)C1c1c(-c2ccccc2)[nH]c2ccccc12 (configuration not stated),Activity,[2],70.2%
same,Activity,[3],66.6 to 76.1%
same,Activity,[4],74.5%
COc1ccc(C2C(c3ccc(C#N)cc3)=NN(c3ccccc3)C2C#N)cc1 (configuration not stated),Activity,[5],< 60%
Clc1ncnc2c1ncn2CC1CC(c2ccccc2)=NN1c1ccccc1 (configuration not stated),inhibition,[6],94%
same,Activity,[1],13 to 24%
O=C(/C=C/c1cn(-c2ccccc2)nc1-c1ccccc1)c1cccc(NC(=O)c2ccc(F)cc2)c1,Activity,[7],36.8 to 42.3%
same,Activity,[8],32.4 to 77.9%
same,Activity,[9],44.4 to 55.5%
O=C(Nc1ccccc1)NS(=O)(=O)c1ccc(N2N=C(c3ccco3)CC2c2cnn(-c3ccccc3)c2)cc1 (configuration not stated),Activity,[10],25%
COc1ccc(C2C(c3ccccc3)=NN(c3ccccc3)C2C#N)cc1 (configuration not stated),Activity,[5],< 45%
CCOC(=O)c1c(C)nn(-c2ccccc2)c1-c1ccc(N(C)C)cc1,inhibition,[11],22.2 to 49.9%
O=C(c1ccc(Cl)cc1)N1N=C(Cn2c3ccccc3c3nc4cc(Cc5ccc6nc(-c7ccccc7)c(-c7ccccc7)nc6c5)ccc4nc32)CC1c1ccc(F)cc1 (configuration not stated),Activity,[12],40.6%
COc1ccc(C2C(c3ccco3)=NN(c3ccccc3)C2C#N)cc1 (configuration not stated),Activity,[5],< 45%
Cc1ccc(-n2nc(-c3ccccc3)cc2Cn2cnc3c(N4CCCC4)ncnc32)cc1,inhibition,[6],87%
same,Activity,[1],43 to 44%
O=C1O[C@H]([C@@H](O)CO)C(O)=C1O,Activity,[7],43%
same,inhibition,[11],28.6%
same,Activity,[8],32.3%
same,Activity,[12],40%
same,Activity,[9],42.4%
same,Activity,,92.7%
NS(=O)(=O)c1ccc(-n2nc(-c3cccs3)cc2-c2cnn(-c3ccccc3)c2)cc1,Activity,[10],12%
COc1ccc(C2C(c3ccc(Br)cc3)=NN(c3ccccc3)C2C#N)cc1 (configuration not stated),Activity,[5],< 60%
Cc1ccc(N2N=C(c3ccccc3)CC2Cn2cnc3c(N4CCOCC4)ncnc32)cc1 (configuration not stated),inhibition,[6],5.8%
same,Activity,[1],43 to 44%
O=C(c1ccc(Cl)cc1)N1N=C(Cn2c3ccccc3c3nc4cc(Cc5ccc6nc(-c7ccccc7)c(-c7ccccc7)nc6c5)ccc4nc32)CC1c1ccc(Cl)cc1 (configuration not stated),Activity,[12],58.3%
O=C(/C=C/c1cn(-c2ccccc2)nc1-c1ccc(Br)cc1)c1cccc(NC(=O)c2ccc(F)cc2)c1,Activity,[7],36.8 to 42.3%
same,Activity,[8],32.4 to 77.9%
same,Activity,[9],44.4 to 55.5%
CCOC(=O)c1c(C)nn(-c2cccc(Cl)c2)c1-c1cccc(Cl)c1,inhibition,[11],22.2 to 49.9%
CCOC(=O)c1c(C)nn(-c2ccc(C)cc2C)c1-c1ccc(N(C)C)cc1,inhibition,[11],22.2 to 49.9%
Clc1ncnc2c1ncn2CC1CC(C2=NNC(Cn3cnc4c(Cl)ncnc43)C2)=NN1 (configuration not stated),Activity,[1],62 to 79%
Cc1c(C)c2c(c(C)c1O)CCC(C)(C(=O)O)O2 (configuration not stated),inhibition,[6],64%
COc1ccc(C2=NN(c3ccccc3)[C@H]3C(=O)N(c4ccccc4)C(=O)[C@@H]23)cc1,Activity,[13],< 55%
Cc1ccc(-n2nc(-c3ccccc3)cc2Cn2cnc3c(N4CCCCC4)ncnc32)cc1,Activity,[1],62 to 79%
O=C(/C=C/c1cn(-c2ccccc2)nc1-c1cccc([N+](=O)[O-])c1)c1cccc(NC(=O)c2ccc(F)cc2)c1,Activity,[7],33.3%
same,Activity,[8],32.4 to 77.9%
O=C(c1ccccc1)N1N=C(Cn2c3ccccc3c3nc4cc(Cc5ccc6nc(-c7ccccc7)c(-c7ccccc7)nc6c5)ccc4nc32)CC1c1ccc(F)cc1 (configuration not stated),Activity,[12],45.5%
CC(C)(C)OC(=O)N1CCN(c2ncnc3c2ncn3CC2CC(c3ccccc3)=NN2c2ccccc2)CC1 (configuration not stated),inhibition,[6],54%
same,Activity,[1],13 to 24%
COc1ccc(C2=NN(c3ccccc3)[C@H]3C(=O)N(c4ccccc4)C(=O)[C@@H]23)cc1OC,Activity,[13],< 55%
COc1ccc(C2CC(Cn3c4ccccc4c4nc5cc(Cc6ccc7nc(-c8ccccc8)c(-c8ccccc8)nc7c6)ccc5nc43)=NN2C(=O)c2ccccc2)cc1 (configuration not stated),Activity,[12],50.5%
c1ccc(C2=NN(c3ccccc3)C(Cn3cnc4c(N5CCCCC5)ncnc43)C2)cc1 (configuration not stated),inhibition,[6],72%
same,Activity,[1],13 to 24%
O=C1[C@H]2C(c3ccc(Cl)cc3)=NN(c3ccccc3)[C@H]2C(=O)N1c1ccccc1,Activity,[13],< 40%
COc1ccc(-c2nn(-c3ccccc3)cc2/C=C/C(=O)c2cccc(NC(=O)c3ccc(F)cc3)c2)cc1,Activity,[8],32.4 to 77.9%
same,Activity,[9],44.4 to 55.5%
COc1ccc(C2C(c3ccc(OC)c(OC)c3)=NN(c3ccccc3)C2C#N)cc1 (configuration not stated),Activity,[5],32%
COc1ccc(C2C(c3ccc(Cl)cc3)=NN(c3ccccc3)C2C#N)cc1 (configuration not stated),Activity,[5],< 60%
CCOC(=O)C1=C(N)Oc2c(c(C)nn2C(=O)c2ccncc2)C1c1c(-c2ccccc2)[nH]c2ccc(Cl)cc12 (configuration not stated),Activity,[2],76.7%
Nc1n[nH]c(-c2ccccc2)c1-c1nc2c(cnn2-c2ccccc2)c(=O)[nH]1,Activity,,92.3%
COc1ccc(C2C(c3ccc(F)cc3)=NN(c3ccccc3)C2C#N)cc1 (configuration not stated),Activity,[5],< 60%
O=C(Nc1ccc(Cl)cc1)NS(=O)(=O)c1ccc(N2N=C(c3ccco3)CC2c2cnn(-c3ccccc3)c2)cc1 (configuration not stated),Activity,[10],16%
Cc1ccc(N2N=C(c3ccccc3)CC2Cn2cnc3c(N4CCCC4)ncnc32)cc1 (configuration not stated),inhibition,[6],49%
same,Activity,[1],43 to 44%
Cc1ccc(-n2nc(-c3ccccc3)cc2Cn2cnc3c(Cl)ncnc32)cc1,Activity,[1],60%
O=C(/C=C/c1cn(-c2ccccc2)nc1-c1ccc(F)cc1)c1cccc(NC(=O)c2ccc(F)cc2)c1,Activity,[7],33.3%
same,Activity,[8],32.4 to 77.9%
COc1ccc(C2=NN(c3ccccc3)C(C#N)C2c2ccc(OC)cc2)cc1 (configuration not stated),Activity,[5],< 45%
Cc1ccc(-c2nn(-c3ccccc3)cc2/C=C/C(=O)c2cccc(NC(=O)c3ccc(F)cc3)c2)cc1,Activity,[7],36.8 to 42.3%
same,Activity,[8],32.4 to 77.9%
same,Activity,[9],44.4 to 55.5%
O=S(=O)(NC(=S)Nc1ccc(F)cc1)c1ccc(N2N=C(c3ccco3)CC2c2cnn(-c3ccccc3)c2)cc1 (configuration not stated),Activity,[10],27%
CCOC(=O)c1c(C)nn(-c2ccccc2)c1-c1ccc([N+](=O)[O-])cc1,inhibition,[11],22.2 to 49.9%
c1ccc(C2=NN(c3ccccc3)C(Cn3cnc4c(N5CCCC5)ncnc43)C2)cc1 (configuration not stated),inhibition,[6],73%
same,Activity,[1],13 to 24%
CCOC(=O)c1c(C)nn(-c2cccc(Cl)c2)c1-c1ccc(Cl)cc1,inhibition,[11],22.2 to 49.9%
CCOC(=O)C1=C(N)Oc2c(c(C)nn2C(=O)c2ccncc2)C1c1c(-c2ccc(C)cc2)[nH]c2ccccc12 (configuration not stated),Activity,[14],80.1%
same,Activity,[2],76.1%
same,Activity,[3],79.6%
same,Activity,[4],76.1%
NS(=O)(=O)c1ccc(N2N=C(c3ccco3)CC2c2cnn(-c3ccccc3)c2)cc1 (configuration not stated),Activity,[10],23%
COc1ccc(C2CC(Cn3c4ccccc4c4nc5cc(Cc6ccc7nc(-c8ccccc8)c(-c8ccccc8)nc7c6)ccc5nc43)=NN2C(=O)c2ccc(Cl)cc2)cc1 (configuration not stated),Activity,[12],59.4%
c1ccc(C2=NN(c3ccccc3)C(Cn3cnc4c(N5CCOCC5)ncnc43)C2)cc1 (configuration not stated),inhibition,[6],100%
same,Activity,[1],13 to 24%
CCOC(=O)c1c(C)nn(-c2cccc(Cl)c2)c1-c1ccc(N(C)C)cc1,inhibition,[11],22.2 to 49.9%
O=C(/C=C/c1cn(-c2ccccc2)nc1-c1ccc(Cl)cc1)c1cccc(NC(=O)c2ccc(F)cc2)c1,Activity,[8],32.4 to 77.9%
same,Activity,[9],44.4 to 55.5%
CCOC(=O)C1=C(N)Oc2c(c(C)nn2C(=O)c2ccncc2)C1c1c(-c2ccc(C)cc2)[nH]c2ccc(Cl)cc12 (configuration not stated),Activity,[14],66.6 to 76.1%
CCOC(=O)c1c(C)nn(-c2ccc(C)cc2C)c1-c1ccc([N+](=O)[O-])cc1,inhibition,[11],22.2 to 49.9%
CCOC(=O)c1c(C)nn(-c2cccc(Cl)c2)c1-c1ccc([N+](=O)[O-])cc1,inhibition,[11],22.2 to 49.9%
Cc1ccc(-n2nc(-c3ccccc3)cc2Cn2cnc3c(N4CCOCC4)ncnc32)cc1,inhibition,[6],99%
same,Activity,[1],62 to 79%
NS(=O)(=O)c1ccc(N2N=C(c3cccs3)CC2c2cnn(-c3ccccc3)c2)cc1 (configuration not stated),Activity,[10],29%
O=C1[C@H]2C(c3ccccc3)=NN(c3ccccc3)[C@H]2C(=O)N1c1ccccc1,Activity,[13],< 55%
O=C1[C@H]2C(c3ccccc3)=NN(c3ccccc3)[C@H]2C(=O)N1c1ccc(Cl)cc1,Activity,[13],< 40%
COc1cc(C2=NN(c3ccccc3)[C@H]3C(=O)N(c4ccccc4)C(=O)[C@@H]23)cc(OC)c1OC,Activity,[13],< 55%
Cc1ccc(N2N=C(c3ccccc3)CC2Cn2cnc3c(Cl)ncnc32)cc1 (configuration not stated),inhibition,[6],58%
same,Activity,[1],20%
